Test results: patent US20150141381A1, “TETRACYCLINE COMPOUNDS HAVING TARGET THERAPEUTIC ACTIVITIES” (Paratek Pharmaceuticals, Inc., priority 2001, published 2015)
Where two headings read alike, the source gives them in different places.

Columns and labels:
S. aureus RN450 = assay: In Vitro Anti-Bacterial Activity Assay (MIC), gram positive; assay type: cell-based; settings: Staphylococcus aureus, RN450, 18 h, gram positive bacteria; read-out: Antibiotic Activity Gram + (MIC)
E. coli mL308 225 = assay: In Vitro Anti-Bacterial Activity Assay (MIC), gram negative; assay type: cell-based; settings: Escherichia coli, ML308225, 18 h, read-out: Antibiotic Activity Gram − (MIC)

SMILES	MIC (S. aureus RN450)	MIC (E. coli mL308 225; gram negative bacteria)	MIC (E. coli mL308 225)
CNCc1cc(CNCC(C)(C)C)c2c(c1O)C(=O)C1=C(O)[C@]3(O)C(=O)C(C(N)=O)=C(O)[C@@H](N(C)C)[C@@H]3C[C@@H]1C2	> 4 µg/mL	> 4 µg/mL	
CN(C)[C@@H]1C(O)=C(C(N)=O)C(=O)[C@@]2(O)C(O)=C3C(=O)c4c(O)ccc(-c5cnccn5)c4C[C@H]3C[C@@H]12	< 4 µg/mL	< 4 µg/mL	
COCC(=O)Nc1cccc(-c2ccc(O)c3c2C[C@H]2C[C@H]4[C@H](N(C)C)C(O)=C(C(N)=O)C(=O)[C@@]4(O)C(O)=C2C3=O)c1	< 4 µg/mL	> 4 µg/mL	
Cc1ccc(-c2ccc(O)c3c2C[C@H]2C[C@H]4[C@H](N(C)C)C(O)=C(C(N)=O)C(=O)[C@@]4(O)C(O)=C2C3=O)nc1	< 4 µg/mL	< 4 µg/mL	
CN(C)c1cc(CNc2ccccn2)c(O)c2c1C[C@H]1C[C@H]3[C@H](N(C)C)C(O)=C(C(N)=O)C(=O)[C@@]3(O)C(O)=C1C2=O	< 4 µg/mL	> 4 µg/mL	
Cc1ccnc(-c2ccc(O)c3c2C[C@H]2C[C@H]4[C@H](N(C)C)C(O)=C(C(N)=O)C(=O)[C@@]4(O)C(O)=C2C3=O)c1	< 4 µg/mL	< 4 µg/mL	
CN(C)[C@@H]1C(O)=C(C(N)=O)C(=O)[C@@]2(O)C(O)=C3C(=O)c4c(O)ccc(-c5cncc(Br)c5)c4C[C@H]3C[C@@H]12	< 4 µg/mL	< 4 µg/mL	
CN(C)c1cc(NCc2cc[nH]n2)c(O)c2c1C[C@H]1C[C@H]3[C@H](N(C)C)C(O)=C(C(N)=O)C(=O)[C@@]3(O)C(O)=C1C2=O	> 4 µg/mL	> 4 µg/mL	
CN(C)c1cc(NCc2ccc([N+](=O)[O-])cc2)c(O)c2c1C[C@H]1C[C@H]3[C@H](N(C)C)C(O)=C(C(N)=O)C(=O)[C@@]3(O)C(O)=C1C2=O	< 4 µg/mL	> 4 µg/mL	
CCN(CC)Cc1cc(N(C)C)c2c(c1O)C(=O)C1=C(O)[C@]3(O)C(=O)C(C(N)=O)=C(O)[C@@H](N(C)C)[C@@H]3C[C@@H]1C2	< 4 µg/mL	> 4 µg/mL	
CN(C)[C@@H]1C(OCc2ccccc2)=C(C(N)=O)C(=O)[C@@]2(O)C(O)=C3C(=O)c4c(O)cccc4C[C@H]3C[C@@H]12	> 4 µg/mL	> 4 µg/mL	
CCCCOc1cccc2c1C(=O)C1=C(O)[C@]3(O)C(=O)C(C(N)=O)=C(O)[C@@H](N(C)C)[C@@H]3C[C@@H]1C2	> 4 µg/mL	> 4 µg/mL	
CN(C)[C@@H]1C(OCc2ccccc2)=C(C(N)=O)C(=O)[C@@]2(O)C(O)=C3C(=O)c4c(O)ccc(I)c4C[C@H]3C[C@@H]12	< 4 µg/mL	< 4 µg/mL	
COC(=O)C1CCN(CC(=O)Nc2ccc(-c3ccc(O)c4c3C[C@H]3C[C@H]5[C@H](N(C)C)C(O)=C(C(N)=O)C(=O)[C@@]5(O)C(O)=C3C4=O)cc2)CC1	< 4 µg/mL	> 4 µg/mL	
CN(C)[C@@H]1C(O)=C(C(N)=O)C(=O)[C@@]2(O)C(O)=C3C(=O)c4c(O)ccc(-c5ccc(-n6cccc6)nc5)c4C[C@H]3C[C@@H]12	< 4 µg/mL	< 4 µg/mL	
CN(C)[C@@H]1C(O)=C(C(N)=O)C(=O)[C@@]2(O)C(O)=C3C(=O)c4c(O)ccc(-c5ccc(O)nc5)c4C[C@H]3C[C@@H]12	< 4 µg/mL	< 4 µg/mL	
CC(=O)Nc1ccc(-c2ccc(O)c3c2C[C@H]2C[C@H]4[C@H](N(C)C)C(O)=C(C(N)=O)C(=O)[C@@]4(O)C(O)=C2C3=O)cn1	< 4 µg/mL	> 4 µg/mL	
CCCCOc1cccc2c1C(=O)C1=C(O)[C@]3(O)C(=O)C(C(N)=O)=C(O)[C@@H](N(C)C)[C@@H]3[C@@H](O)[C@@H]1[C@H]2C	> 4 µg/mL	> 4 µg/mL	
CN(Cc1cc(N(C)C)c2c(c1O)C(=O)C1=C(O)[C@]3(O)C(=O)C(C(N)=O)=C(O)[C@@H](N(C)C)[C@@H]3C[C@@H]1C2)CC(C)(C)C	< 4 µg/mL	< 4 µg/mL	
CC(CC(F)(F)F)N(C)Cc1cc(N(C)C)c2c(c1O)C(=O)C1=C(O)[C@]3(O)C(=O)C(C(N)=O)=C(O)[C@@H](N(C)C)[C@@H]3C[C@@H]1C2 (some centres unmarked)	< 4 µg/mL	< 4 µg/mL	
CN(C)[C@@H]1C(O)=C(C(N)=O)C(=O)[C@@]2(O)C(O)=C3C(=O)c4c(O)ccc(-c5ccncc5Cl)c4C[C@H]3C[C@@H]12	< 4 µg/mL	< 4 µg/mL	
CN(C)c1cc(CC2=COc3ccccc3C2)c(O)c2c1C[C@H]1C[C@H]3[C@H](N(C)C)C(O)=C(C(N)=O)C(=O)[C@@]3(O)C(O)=C1C2=O	< 4 µg/mL	> 4 µg/mL	
CN(C)c1cc(CNOC(C)(C)C)c(O)c2c1C[C@H]1C[C@H]3[C@H](N(C)C)C(O)=C(C(N)=O)C(=O)[C@@]3(O)C(O)=C1C2=O	< 4 µg/mL	< 4 µg/mL	
COc1cccc(CNCc2cc(N(C)C)c3c(c2O)C(=O)C2=C(O)[C@]4(O)C(=O)C(C(N)=O)=C(O)[C@@H](N(C)C)[C@@H]4C[C@@H]2C3)c1	< 4 µg/mL	> 4 µg/mL	
CN(C)Cc1cc(-c2ccoc2)c2c(c1O)C(=O)C1=C(O)[C@]3(O)C(=O)C(C(N)=O)=C(O)[C@@H](N(C)C)[C@@H]3C[C@@H]1C2	< 4 µg/mL	> 4 µg/mL	

SMILES	MIC (S. aureus RN450)	MIC (E. coli mL308 225; gram negative bacteria)	MIC (E. coli mL308 225)
CN(C)c1cc(CNCc2ccccc2F)c(O)c2c1C[C@H]1C[C@H]3[C@H](N(C)C)C(O)=C(C(N)=O)C(=O)[C@@]3(O)C(O)=C1C2=O	< 4 µg/mL	> 4 µg/mL	
CN(C)[C@@H]1C(O)=C(C(N)=O)C(=O)[C@@]2(O)C(O)=C3C(=O)c4c(O)ccc(-c5cncc(CO)c5)c4C[C@H]3C[C@@H]12	< 4 µg/mL	> 4 µg/mL	
CN(C)[C@@H]1C(O)=C(C(N)=O)C(=O)[C@@]2(O)C(O)=C3C(=O)c4c(cccc4OCCCO)C[C@H]3C[C@@H]12	> 4 µg/mL	> 4 µg/mL	
COCc1cncc(-c2ccc(O)c3c2C[C@H]2C[C@H]4[C@H](N(C)C)C(O)=C(C(N)=O)C(=O)[C@@]4(O)C(O)=C2C3=O)c1	< 4 µg/mL	< 4 µg/mL	
CCCCOc1ccc(-c2ccc(N(C)C)cc2)c2c1C(=O)C1=C(O)[C@]3(O)C(=O)C(C(N)=O)=C(O)[C@@H](N(C)C)[C@@H]3C[C@@H]1C2	< 4 µg/mL	> 4 µg/mL	
CN(C)c1cc(CNCc2ccc(C(=O)O)cc2)c(O)c2c1C[C@H]1C[C@H]3[C@H](N(C)C)C(O)=C(C(N)=O)C(=O)[C@@]3(O)C(O)=C1C2=O	> 4 µg/mL	> 4 µg/mL	
COC(=O)O[C@@]12C(=O)C(C(N)=O)=C(O)[C@@H](N(C)C)[C@@H]1C[C@@H]1Cc3cccc(O)c3C(=O)C1=C2O	> 4 µg/mL	> 4 µg/mL	
CN[C@@]12C(=O)C(C(N)=O)=C(O)[C@@H](N(C)C)[C@@H]1[C@@H](OC)[C@H]1C(=C2O)C(=O)c2c(O)cccc2[C@@H]1C	> 4 µg/mL	> 4 µg/mL	
CN(C)c1cc(CO)c(O)c2c1C[C@H]1C[C@H]3[C@H](N(C)C)C(O)=C(C(N)=O)C(=O)[C@@]3(O)C(O)=C1C2=O	< 4 µg/mL	> 4 µg/mL	
CCONC(C)c1ccc(O)c2c1C[C@H]1C[C@H]3[C@H](N(C)C)C(O)=C(C(N)=O)C(=O)[C@@]3(O)C(O)=C1C2=O (some centres unmarked)	< 4 µg/mL	< 4 µg/mL	
C/C(=N\OC(C)(C)C)c1ccc(O)c2c1C[C@H]1C[C@H]3[C@H](N(C)C)C(O)=C(C(N)=O)C(=O)[C@@]3(O)C(O)=C1C2=O	< 4 µg/mL	< 4 µg/mL	
CN(C)c1cc(CNCC(=O)O)c(O)c2c1C[C@H]1C[C@H]3[C@H](N(C)C)C(O)=C(C(N)=O)C(=O)[C@@]3(O)C(O)=C1C2=O	> 4 µg/mL	> 4 µg/mL	
COC(=O)c1ccc(CNCc2cc(N(C)C)c3c(c2O)C(=O)C2=C(O)[C@]4(O)C(=O)C(C(N)=O)=C(O)[C@@H](N(C)C)[C@@H]4C[C@@H]2C3)cc1	< 4 µg/mL	> 4 µg/mL	
CN(C)[C@@H]1C(O)=C(C(N)=O)C(=O)[C@@]2(O)C(O)=C3C(=O)c4c(O)c(CN5CCCCC5)cc(-c5ccccn5)c4C[C@H]3C[C@@H]12	< 4 µg/mL	> 4 µg/mL	
CN(C)[C@@H]1C(O)=C(C(N)=O)C(=O)[C@@]2(O)C(O)=C3C(=O)c4c(O)c(CNC5CCCC5)cc(-c5ccoc5)c4C[C@H]3C[C@@H]12	< 4 µg/mL	> 4 µg/mL	
CC(=O)c1cc(CNCC(C)(C)C)c(O)c2c1C[C@H]1C[C@H]3[C@H](N(C)C)C(O)=C(C(N)=O)C(=O)[C@@]3(O)C(O)=C1C2=O	< 4 µg/mL	> 4 µg/mL	
CONCc1cc(CNCC(C)(C)C)c(O)c2c1C[C@H]1C[C@H]3[C@H](N(C)C)C(O)=C(C(N)=O)C(=O)[C@@]3(O)C(O)=C1C2=O	< 4 µg/mL	> 4 µg/mL	
CC(C)Cc1ccc(O)c2c1C[C@H]1C[C@H]3[C@H](N(C)C)C(O)=C(C(N)=O)C(=O)[C@@]3(O)C(O)=C1C2=O	< 4 µg/mL	< 4 µg/mL	
CCN(CC)Cc1cc(-c2ccoc2)c2c(c1O)C(=O)C1=C(O)[C@]3(O)C(=O)C(C(N)=O)=C(O)[C@@H](N(C)C)[C@@H]3C[C@@H]1C2	< 4 µg/mL	> 4 µg/mL	
CC(C)ONC(C)c1ccc(O)c2c1C[C@H]1C[C@H]3[C@H](N(C)C)C(O)=C(C(N)=O)C(=O)[C@@]3(O)C(O)=C1C2=O (some centres unmarked)	< 4 µg/mL	< 4 µg/mL	
CN(C)[C@@H]1C(O)=C(C(N)=O)C(=O)[C@@]2(O)C(O)=C3C(=O)c4c(O)c(CNCC(C)(C)C)cc(-c5ccccn5)c4C[C@H]3C[C@@H]12	< 4 µg/mL	> 4 µg/mL	
COc1ccc(-c2cc(CNC(C)CF)c(O)c3c2C[C@H]2C[C@H]4[C@H](N(C)C)C(O)=C(C(N)=O)C(=O)[C@@]4(O)C(O)=C2C3=O)cc1 (some centres unmarked)	< 4 µg/mL		> 4 µg/mL
COCc1ccc(O)c2c1C[C@H]1C[C@H]3[C@H](N(C)C)C(O)=C(C(N)=O)C(=O)[C@@]3(O)C(O)=C1C2=O	< 4 µg/mL	< 4 µg/mL	
CCOC(=O)/C=C/c1cc(N(C)C)c2c(c1O)C(=O)C1=C(O)[C@]3(O)C(=O)C(C(N)=O)=C(O)[C@@H](N(C)C)[C@@H]3C[C@@H]1C2	< 4 µg/mL	> 4 µg/mL	
